From BindingDB's records for doi:10.7270/Q2WH2TT9 (D3R/Abbott, 2020) come the findings set out here.

The target in the experiment is Angiopoietin-1 receptor (Homo sapiens, UniProt Q02763). The experiment can be described thus: D3R2025.
Angiopoietin-1 receptor, sequence (Q02763 whole entry): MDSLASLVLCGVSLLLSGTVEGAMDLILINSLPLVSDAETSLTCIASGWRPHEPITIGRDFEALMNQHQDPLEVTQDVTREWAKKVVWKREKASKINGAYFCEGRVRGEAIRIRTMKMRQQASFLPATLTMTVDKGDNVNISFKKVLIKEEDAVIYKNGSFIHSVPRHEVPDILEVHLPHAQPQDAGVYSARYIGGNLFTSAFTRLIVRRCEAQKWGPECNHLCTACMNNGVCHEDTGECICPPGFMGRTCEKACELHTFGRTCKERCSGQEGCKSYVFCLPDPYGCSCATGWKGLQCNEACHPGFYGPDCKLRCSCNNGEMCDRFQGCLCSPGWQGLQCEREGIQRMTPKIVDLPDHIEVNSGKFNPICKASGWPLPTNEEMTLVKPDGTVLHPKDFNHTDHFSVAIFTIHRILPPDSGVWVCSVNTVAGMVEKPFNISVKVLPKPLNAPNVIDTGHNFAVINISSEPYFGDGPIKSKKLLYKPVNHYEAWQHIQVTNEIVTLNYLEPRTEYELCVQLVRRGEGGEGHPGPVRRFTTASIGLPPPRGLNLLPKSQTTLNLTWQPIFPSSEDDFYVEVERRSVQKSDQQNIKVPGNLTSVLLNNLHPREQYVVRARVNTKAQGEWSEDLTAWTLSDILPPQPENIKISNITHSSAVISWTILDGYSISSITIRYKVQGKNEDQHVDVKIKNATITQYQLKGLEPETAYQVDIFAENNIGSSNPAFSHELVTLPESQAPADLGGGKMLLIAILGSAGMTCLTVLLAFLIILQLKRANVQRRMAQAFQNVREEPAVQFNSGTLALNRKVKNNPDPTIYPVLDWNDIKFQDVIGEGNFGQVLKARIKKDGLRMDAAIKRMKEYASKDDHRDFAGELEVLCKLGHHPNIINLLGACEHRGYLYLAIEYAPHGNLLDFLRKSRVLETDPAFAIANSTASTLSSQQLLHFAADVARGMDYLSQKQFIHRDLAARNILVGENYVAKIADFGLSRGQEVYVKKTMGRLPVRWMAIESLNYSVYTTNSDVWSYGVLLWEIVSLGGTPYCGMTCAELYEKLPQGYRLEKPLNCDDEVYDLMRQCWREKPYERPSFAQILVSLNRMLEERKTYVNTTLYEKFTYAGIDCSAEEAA
Description: D3R2025
In the case of `CSc1nccc(-c2c(-c3ccc(F)cc3)ncn2CCCN2CCOCC2)n1`, the dissociation constant (Kd) (in general, the concentration at which binding is half-saturated) was found to be 10 µM.

As to `CNc1nccc(-c2c(-c3ccc(F)cc3)ncn2CCCN2CCOCC2)n1`, the Kd stood at 10 µM.

Take `Cc1cc(-c2c(-c3ccc(F)cc3)ncn2CCCN2CCOCC2)nc(N)n1`: binding was characterised by a dissociation constant (Kd) of 10 µM.

As for `CC(C)c1nc(-c2ccc(F)c(NS(=O)(=O)c3c(F)cccc3F)c2)c(-c2ccnc(Nc3ccc(N4CCOCC4)nc3)n2)s1`, binding was put at a Kd of 0.024 µM.

`O=C(Nc1cccc(-c2nn3ncccc3c2-c2ccnc(Nc3cccnc3)n2)c1)c1c(F)cccc1F` had a dissociation constant Kd of 10 µM.

In turn, `CCOC(=O)N1CCC(n2cnc(-c3ccc(F)cc3)c2-c2ccnc(N)n2)CC1` [4-[5-(2-Amino-pyrimidin-4-yl)-4-(4-fluoro-phenyl)-imidazol-1-yl]-piperidine-1-carboxylic acid ethyl ester] had a dissociation constant (Kd) of 10 µM.

With `COc1nccc(-c2c(-c3ccc(F)cc3)ncn2CCCN2CCOCC2)n1` [4-{3-[4-(4-Fluoro-phenyl)-5-(2-methoxy-pyrimidin-4-yl)-imidazol-1-yl]-propyl}-morpholine], binding was put at a Kd of 10 µM.

For the compound `Nc1nccc(-c2c(-c3ccc(F)cc3)ncn2C2CCN(CC(F)(F)F)CC2)n1` [4-{5-(4-Fluoro-phenyl)-3-[1-(2,2,2-trifluoro-ethyl)-piperidin-4-yl]-3H-imidazol-4-yl}-pyrimidin-2-ylamine], the Kd came to 10 µM.

Take `CC(C)c1nc(-c2cccc(NS(=O)(=O)c3c(F)cccc3F)c2F)c(-c2ccnc(Nc3ccc(N4CCOCC4)nc3)n2)s1` [D3RKN_29]: the affinity, expressed as Kd, was 0.0034 µM.

`O=C(Nc1cccc(-c2nn3ncccc3c2-c2ccnc(Nc3ccccc3)n2)c1)c1c(F)cccc1F` [D3RKN_56]: binding was characterised by a dissociation constant (Kd) of 2.5 µM.

With `CC(=O)N1CCN(c2ccc(Nc3nccc(-c4sc(C(C)C)nc4-c4cccc(NS(=O)(=O)c5cccc(Cl)c5)c4)n3)cn2)CC1` [D3RKN_98], the affinity, expressed as Kd, was 0.093 µM.

The compound `CC(C)c1nc(-c2cccc(NS(=O)(=O)c3ccccc3)c2)c(-c2ccnc(Nc3ccc4c(c3)CN(C)CC4)n2)s1` [D3RKN_117] gave a Kd of 0.092 µM.

In the case of `CC(C)c1nc(-c2cccc(NS(=O)(=O)c3c(F)cccc3F)c2)c(-c2ccnc(Nc3ccc(N4CCOCC4)nc3)n2)s1` [D3RKN_118], the dissociation constant (Kd) came out at 0.027 µM.

`O=C(Nc1cccc(-c2nn3ncccc3c2-c2ccnc(Nc3cccc(C(F)(F)F)c3)n2)c1)c1c(F)cccc1F` [D3RKN_119] showed a Kd of 10 µM.

`CCc1nc(-c2cccc(N(C)S(=O)(=O)c3ccccc3)c2)c(-c2ccnc(Nc3ccc(N4CCN(C(C)=O)CC4)nc3)n2)s1` [D3RKN_120]: the Kd turned out to be 3.2 µM.

`COc1cc(Nc2nccc(-c3c(-c4cccc(NC(=O)c5c(F)cccc5F)c4)nn4ncccc34)n2)cc(OC)c1OC` [D3RKN_124] came in with a Kd of 0.2 µM.

`CCNc1nccc(-c2c(-c3ccc(F)cc3)ncn2C2CCN(C)CC2)n1` [Ethyl-{4-[5-(4-fluoro-phenyl)-3-(1-methyl-piperidin-4-yl)-3H-imidazol-4-yl]-pyrimidin-2-yl}-amine] had a Kd of 10 µM.

`CNc1nccc(-c2c(-c3ccc(F)cc3)ncn2C2CCN(C)CC2)n1` [{4-[5-(4-Fluoro-phenyl)-3-(1-methyl-piperidin-4-yl)-3H-imidazol-4-yl]-pyrimidin-2-yl}-methyl-amine] showed a dissociation constant (Kd) of 10 µM.
